According to US9084782B2, “Chemical inhibitors of cholesterol biosynthesis and venous angiogenesis” (The Regents of the University of California, priority 2011, dated 2015):
Entries after “also recorded” stand apart in the source; their conditions may differ.

Key:
[1] = system: Tg(kdrl:GFP) zebrafish embryos; experiment: Primary ISV formation (arterial-derived angiogenesis) in zebrafish embryos; format: in vivo
From the text: Images of GFP expression in Tg(kdrl:GFP) embryos were acquired using a Zeiss SV-11 epifluorescence microscope. Confocal images were acquired using a Carl Zeiss Laser Scanning Systems LSM510 equipped with 20× air, 20× water or 40× water immersion objectives. For single time point confocal images, embryos were anesthetized with 0.01% tricaine and embedded in 1% agarose. When capturing time-lapse confocal movies, embryos were mounted in 3.5% methylcellulose (Sigma-Aldrich) and imaged for 5 hrs on a heated stage at 28.5° C. The images obtained were analyzed using the Zeiss LSM Image Brower version 4 and Image J.
A synthetic chemical library containing 168 compounds (Castellano et al., 2007) and 300 chemicals from Biomol International LP, consisting of 72 ion channel inhibitors (Cat No. 2805), 84 kinase/phosphatase inhibitors (Cat No. 2831), 84 orphan ligands (Cat No. 2825), and 60 endocannabinoids (Cat No. 2801) were screened. […]
To understand whether angiogenesis from arterial and venous ECs are under different genetic controls we screened a collection of small molecules for compounds that preferentially suppress angiogenesis from exclusively one cell type. In this screen, we used the primary ISV sprouts as the readout for arterial-derived angiogenesis, and the CVP and secondary ISV sprouts as indicators of venous-derived angiogenesis. […]

[2] = system: cardiomyocytes; experiment: Cardiomyocyte migration / heart tube formation in Tg(myl7:GFP) embryos; format: in vivo, zebrafish; settings: 30 μM aplexone
Protocol: (§1) A,B,C, Overall phenotype of control and aplexone-treated embryos at 30 hpf. A′,B′,C′, Vasculature in trunk. […] D-E, Germ cells in control and aplexone treated embryos at 24 hpf were detected by in situ hybridization using the nanos probe. F, The percentage of embryos with ectopic primordial germ cells in control (n=26), 5 μM (n=13), and 10 μM (n=14) aplexone-treated embryos. […] I, The percentage of embryos with cardia bifida in control (n=16) and 10 μM-(n=17), 20 μM-(n=17) and 30 μM-(n=18) aplexone-treated embryos.

[3] = system: HUVECs; experiment: Wound healing assay, HUVECs; format: cell-based, human
Protocol: (§2) HUVECs and HUAECs were purchased from VEC Technologies. Cells were cultured on 0.1% Gelatin-coated dishes in Medium 199 (Mediatech), supplemented with 15% Fetal Bovine Serum (ATCC), 48 μg/mL Endothelial Cell Growth Supplement (BD Biosciences), 64 μg/mL Heparin Sulfate (Sigma-Aldrich), 0.9 mM Sodium Pyruvate (Mediatech), 100 IU/ml Penicillin (Mediatech), and 100 μg/ml Streptomycin (Mediatech).
(§3) For the wound healing assay, cells were cultured in 24-well plates to confluence before being subjected to a 2-hour pre-treatment with either DMSO, aplexone, Rockout (Calbiochem) or NSC 23766 (TOCRIS Bioscience). After the pre-treatment, the monolayer of endothelial cells was scratched and the closure of the wound was measured after 8 hr. The images of wounds were taken at 0 and 8 hr after scratching and the area of the wound was measured using Image J. The migration distance (the width of the wound) was calculated by dividing the area by the length of the wound. Cells below passage seven were used in this study.

[4] = system: primordial germ cells; experiment: Primordial germ cell migration, in situ hybridization with nanos probe; format: in vivo, zebrafish; settings: 10 μM aplexone
Protocol: as §1

[5] = system: HUAECs; experiment: Wound healing assay, HUAECs; format: cell-based, human
Protocol: as §2, §3

[6] = system: HMGCR pathway; experiment: Cholesterol assay in embryo lysate (Amplex Red); format: in vivo, zebrafish
Protocol: The yolk was removed from embryos by vortexing in calcium-free Ringer's solution with 1 mM EDTA at 4° C. The embryos were then pelleted and washed with fresh calcium free Ringer's solution 5 times before being resuspended in cholesterol assay reaction buffer and were then lysed by sonication using a Sonifier 450 (Branson). Cholesterol levels in the embryo lysate were measured with an Amplex Red Cholesterol Assay Kit (Invitrogen) and Flex station II (Bucher Biotec). The total protein concentration of the embryo lysate was measured using a DC protein assay (Bio-Rad Laboratories) and SpectraMax plus (Molecular Devices).

[7] = system: mCherry-RhoCLVL; experiment: Localization of chimeric protein mCherry-RhoCLVL (geranylgeranylation); format: in vivo, zebrafish; settings: 10 μM aplexone, 80% epiboly
Protocol: mCherry-RhoCLVL was generated by PCR amplification of mCherry from pmCherry-N3 (a generous gift from S. Walsh) using primers containing sequences coding for the C-terminal 20 amino acid residues of human RhoA. mCherry-RasCVLS was amplified from pME-mCherryCAAX (a generous gift from C.-B. Chien). The PCR products were sub-cloned into pcGlobin2 (Ro et al., 2004) and mRNA was synthesized using the mMESSAGE mMACHINE kit (Ambion). Zebrafish embryos were injected with 250 pg of mCherry-RhoCLVL and mCherry-RasCVLS mRNA at 1-cell stage, and raised with or without the presence of 10 μM aplexone at 25° C. and fixed at 80% epiboly. Cellular localizations of the mCherry chimeras were analyzed with confocal microscopy.

CC(=O)C1=CCC(c2ccccc2)N(S(=O)(=O)c2ccc(C)cc2)C1 (stereo not drawn) [aplexone]
development of primary ISVs ([1]; 10 μM aplexone): indistinguishable; also recorded: does not affect the development of primary ISVs
development of primary ISVs ([1]; 30 μM aplexone): shorter and never reach the dorsal side of the somites; also recorded: inhibits the growth of primary ISVs
fusion of cardiac primordia / cardiomyocyte migration to midline [2]: defects in the fusion of the bilaterally positioned cardiac primordia; also recorded: fail to migrate to midline
migration of HUVECs ([3]; 5 μM aplexone): sufficient to impede the migration of HUVECs
migration of HUVECs ([3]; various aplexone concentrations, 8 hr after wound): inhibited
germ cell migration [4]: defect in germ cell migration
HUAEC migration ([5]; 5 μM aplexone, 8 hr): unaffected
impediment in HUAEC migration ([5]; 10 μM aplexone, p<0.05): 10%
efficiency of cholesterol reduction compared with atorvastatin ([6]; higher concentration (40 uL)): more efficient
efficiency of cholesterol reduction compared with atorvastatin ([6]; lower concentration (10 uL)): as efficient as atorvastatin
embryonic cholesterol levels ([6]; relative to 0.4% DMSO control): reduced embryonic cholesterol levels to a comparable degree as treatment with atorvastatin; also recorded: reduce cholesterol level significantly
subcellular localization of mCherry-rhoCAAX (CLVL) chimeric protein [7]: no longer localized predominantly to the membrane; also recorded: mis-localized to the nucleus and cytoplasm
